Measurements: patent publication US20260335495A1, “SYNERGISTIC ACTIVITY OF NOVEL COMPOUNDS AGAINST PLANKTONIC AND BIOFILM CELLS OF CLINICALLY RELEVANT PATHOGENS” (priority 2021, published 2026)
Where a name gives a salt, the structure may show the parent alone.

Key:
[1] = test system: bacterial and fungal biofilms; assay: Rapid eradication of 48-h-old biofilms within 2 h exposure; assay type: cell-based, bacterial and fungal strains; conditions: at the MBEC alone, 48-h-old biofilm
Protocol: This example comprises performing biofilm growth as described above. After biofilm formation, control pegs (n=6) were removed and analyzed to determine the starting biofilm cell numbers via the drop dilution method. The 48-h old biofilms on the pegs were exposed to different concentrations of test antimicrobials, dissolved in an appropriate growth medium, for 2 hours to evaluate their efficacy alone and in combination. […] Following treatment, pegs were washed twice with sterile PBS, and the biofilm cells were dislodged into recovery medium and enumerated as described above.

MRSA ON184 = assay: MIC and checkerboard (FICI), planktonic cells; assay type: cell-based, methicillin-resistant S. aureus
Protocol: (§1) The MIC was determined by the micro broth dilution method in 96-well plates. […] A 10 μL containing 1×10^5 bacterial cells or 2×10^3 fungal cells were added to each well. The inoculated plates were covered with a lid, sealed with Parafilm, and incubated for 24 h at 37 °C with slight rocking on a tilting platform shaker. After incubation, the optical density at 600 nm (OD 600) of the cultures in each well was measured using an xMark™ Microplate Absorbance Spectrophotometer (Bio-Rad). The MIC was defined as the lowest concentration of antimicrobial compound at which the culture OD600 values was similar to uninoculated control wells. MBCs and MFCs were determined by transferring 100 μL from each well with no apparent growth onto appropriate agar plates, followed by incubation for 24 h at 37 °C.
(§2) The concentrations of antimicrobials used were based on previously determined MIC values. […] Microtiter plates were incubated at 37 °C for 24 h, and the results were analyzed. Each test was performed in duplicate and included a growth control without the addition of any antimicrobials.

Escherichia coli ON29 = assay: MIC and checkerboard (FICI), planktonic cells; assay type: cell-based
Protocol: as §1, §2

[2] = test system: Staphylococcus aureus ON89; assay: MIC and checkerboard (FICI), planktonic cells; assay type: cell-based
Protocol: as §1, §2

Serratia marcescens SK2 = assay: MIC and checkerboard (FICI), planktonic cells; assay type: cell-based
Protocol: as §1, §2

S. epidermidis SK9 = assay: MIC and checkerboard (FICI), planktonic cells; assay type: cell-based
Protocol: as §1, §2

C. albicans ON47 = assay: MIC and checkerboard (FICI), planktonic cells; assay type: cell-based
Protocol: as §1, §2

[3] = test system: Stenotrophomonas maltophilia ON17; assay: MIC and checkerboard (FICI), planktonic cells; assay type: cell-based
Protocol: as §1, §2

Proteus mirabilis ON153 = assay: MIC and checkerboard (FICI), planktonic cells; assay type: cell-based
Protocol: as §1, §2

E. coli SK2 = assay: MIC and checkerboard (FICI), planktonic cells; assay type: cell-based
Protocol: as §1, §2

[4] = test system: Pseudomonas aeruginosa SK1; assay: MIC and checkerboard (FICI), planktonic cells; assay type: cell-based
Protocol: as §1, §2

[5] = test system: Staphylococcus epidermidis ON170; assay: MIC and checkerboard (FICI), planktonic cells; assay type: cell-based
Protocol: as §1, §2

Candida albicans SK4b = assay: MIC and checkerboard (FICI), planktonic cells; assay type: cell-based
Protocol: as §1, §2

[6] = test system: preformed biofilms of test pathogens; assay: MBEC and FBEC index, 48 h old biofilms, summary over strains; assay type: cell-based, bacterial and fungal strains; conditions: alone: 4% tetrasodium EDTA, 50% ethanol, 100 μg/mL chlorhexidine HCl, 24 hours
Protocol: The evaluation of the biofilm cultivation cell composition was evaluated using an MBEC Assay® biofilm inoculator, consisting of a polystyrene lid with 96 downward-protruding pegs and a corresponding base used to grow biofilms. A standardized inoculum was diluted in an appropriate biofilm growth medium to achieve a viable cell count of 1.5×10^6 CFU/mL of bacterial cells or 5×10^5 CFU/mL of fungal cells. Then, 150 μL of this inoculum was transferred into each appropriate well, and the peg lids were inserted into the microtiter plates. The plates were sealed with Parafilm and were incubated at optimum temperature for 48 h with slight rocking for bacteria and shaking at 200 rpm for fungal strains. After incubation, the peg lid was removed from the base and rinsed twice with sterile phosphate-buffered saline (PBS) for 2 min to remove loosely attached non-sessile cells. Before the antimicrobial challenge, the pegs in column 1 (n=8) were considered as the biofilm growth control; these pegs were removed from the lids, placed into 200 μL of recovery medium, and analyzed for starting biofilm cell numbers as described below. […] After the antimicrobial challenge, the pegs were rinsed twice with sterile PBS for 2 min and placed into a new 96-well plate containing 200 μL of recovery medium. The recovery plates were sealed with Parafilm, and biofilm cells were dislodged from the pegs by sonication for 30 min with a Branson 3510 bath sonicator. The biofilm cells in the recovery medium were serially diluted, and a drop dilution assay was performed to enumerate the viable cells.
In step (4), microtiter plates are incubated at 37 °C for 24 h. then (6), after incubation, the bacterial and fungal cells were dislodged from the pegs into the recovery medium described above.
Three 10-μL aliquots, for a total of 30 μL from each well of recovery medium, were spotted on MH agar plates and incubated for 24 hours at 37 °C. […] The FBEC determination is a modification of the FICI. […]

12 test organisms = assay: MBC/MFC and FMCI, planktonic cells, summary over strains; assay type: cell-based, bacterial and fungal organisms
Protocol: as §1, §2

[7] = cited from earlier work
[8] = test system: human erythrocytes and neutrophils; conditions: concentrations above 2%, in vitro; cited from earlier work
[9] = overuse; cited from earlier work
[10] = test system: broad range of microbial species; conditions: even at high concentrations; cited from earlier work
S. aureus = conditions: cited from earlier work
biofilms = conditions: cited from earlier work

## [H]/N=C(\N/C(=N/[H])NCCCCCCNC(=N)NC(=N)Nc1ccc(Cl)cc1)Nc1ccc(Cl)cc1 [CH, chlorhexidine HCl]
[1]
  biofilm eradication: failed to eradicate the preformed biofilms
MRSA ON184; Staphylococcus aureus, MRSA, alone, 24 h, 37 °C, read-out: MIC
  MIC: 0.2 µg/mL
MRSA ON184; TE + CH in combination
  MIC in combination: 0.2 µg/mL
Escherichia coli ON29; Escherichia coli, ON29, alone, 24 h, 37 °C, read-out: MIC
  MIC: 0.4 µg/mL
Escherichia coli ON29; TE + CH in combination
  MIC in combination: 0.2 µg/mL
[2]; Staphylococcus aureus, ON89, alone, 24 h, 37 °C, read-out: MIC
  MIC: 0.1 µg/mL
[2]; TE + CH in combination
  MIC in combination: 0.1 µg/mL
Serratia marcescens SK2; Serratia marcescens, SK2, 24 h
  MIC: 12.5 µg/mL
Serratia marcescens SK2; TE + CH in combination
  MIC in combination: 1.5 µg/mL
S. epidermidis SK9; Staphylococcus epidermidis, SK9, alone, 24 h, 37 °C, read-out: MIC
  MIC: 0.1 µg/mL
S. epidermidis SK9; TE + CH in combination
  MIC in combination: 0.025 µg/mL
C. albicans ON47; Candida albicans, ON47, 24 h
  MIC: 1.6 µg/mL
C. albicans ON47; TE + CH in combination
  MIC in combination: 0.8 µg/mL
[3]; Stenotrophomonas maltophilia, ON17, 24 h
  MIC: 0.8 µg/mL
[3]; TE + CH in combination
  MIC in combination: 0.2 µg/mL
Proteus mirabilis ON153; Proteus mirabilis, ON153, alone, 24 h, 37 °C, read-out: MIC
  MIC: 50 µg/mL
Proteus mirabilis ON153; TE + CH in combination
  MIC in combination: 0.8 µg/mL
E. coli SK2; Escherichia coli, SK2, 24 h
  MIC: 0.4 µg/mL
E. coli SK2; TE + CH in combination
  MIC in combination: 0.1 µg/mL
[4]; Pseudomonas aeruginosa, SK1, 24 h
  MIC: 1.6 µg/mL
[4]; TE + CH in combination
  MIC in combination: 0.8 µg/mL
[5]; Staphylococcus epidermidis, ON170, alone, 24 h, 37 °C, read-out: MIC
  MIC: 0.1 µg/mL
[5]; TE + CH in combination
  MIC in combination: 0.05 µg/mL
Candida albicans SK4b; Candida albicans, SK4B, 24 h
  MIC: 1.6 µg/mL
Candida albicans SK4b; TE + CH in combination
  MIC in combination: 0.8 µg/mL
[6]
  eradication of all established biofilms: able to eradicate all established biofilms
12 test organisms
  microbicidal activity: broad-spectrum microbicidal activity

## [H]/N=C(\N/C(=N/[H])NCCCCCCNC(=N)NC(=N)Nc1ccc(Cl)cc1)Nc1ccc(Cl)cc1 [Chlorhexidine, 1,6-bis(4-chloro-phenylbiguanido)hexane]
[7]; in vivo
  mammalian toxicity: low mammalian toxicity
[7]; infants
  chemical burns: cause chemical burns in infants
[7]; perioperative and clinical care settings
  allergenicity: significant allergen
[8]
  effect on human erythrocytes and neutrophils: fewer human erythrocytes and neutrophils in vitro
[9]
  reduced susceptibility and cross-resistance: reduced susceptibility from its overuse and a cross-resistance to colistin

## O=C(O)CN(CCN(CC(=O)O)CC(=O)O)CC(=O)O [disodium EDTA]
[10]
  antimicrobial activity alone: not a potent antimicrobial agent (i.e., does not kill cells)

## Heparin
S. aureus
  colonization of catheter surfaces: promote the colonization of S. aureus on catheter surfaces
biofilms
  inhibition or eradication of biofilms: neither of these agents has the potential to inhibit or eradicate biofilms
